Residue numbers refer to the chain shown, from its start.
Experiments:
Experiment in all cases: microscale thermophoresis
Assay type in all cases: binding
[1] = molecular target: T1, TRIM72 (full-length; also MG53) (Homo sapiens, UniProt Q6ZMU5, R169A/R180A/R198A)
T1 construct: full-length residues 2-477; E. coli Rosetta (DE3), His-Sumo cut by Ulp1; GFP-labelled for MST, FLAG-tagged for PIP-Strips; dimer
T1 sequence (Q6ZMU5 2-477 R169A/R180A/R198A): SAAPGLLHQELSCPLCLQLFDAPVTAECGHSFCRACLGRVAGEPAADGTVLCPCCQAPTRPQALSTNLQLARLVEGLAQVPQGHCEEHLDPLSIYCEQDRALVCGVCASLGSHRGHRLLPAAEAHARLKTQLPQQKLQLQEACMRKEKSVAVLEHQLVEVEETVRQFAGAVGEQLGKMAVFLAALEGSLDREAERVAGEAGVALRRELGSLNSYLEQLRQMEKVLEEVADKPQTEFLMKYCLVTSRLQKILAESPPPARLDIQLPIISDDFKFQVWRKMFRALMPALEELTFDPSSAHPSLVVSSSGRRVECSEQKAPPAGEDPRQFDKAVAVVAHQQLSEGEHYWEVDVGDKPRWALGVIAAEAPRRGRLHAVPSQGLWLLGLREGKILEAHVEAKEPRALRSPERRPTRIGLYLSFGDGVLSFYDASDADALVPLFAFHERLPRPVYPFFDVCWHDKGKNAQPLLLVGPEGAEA

[2] = molecular target: T2, TRIM72 (full-length; also MG53) (Homo sapiens, UniProt Q6ZMU5); conditions: 50 mM Tris pH 8.0, 80 mM NaCl, 0.05% Tween 20, 0.3 mM TCEP; room temperature; GFP-labelled protein
T2 construct: full-length residues 2-477; E. coli Rosetta (DE3), His-Sumo cut by Ulp1; GFP-labelled for MST, FLAG-tagged for PIP-Strips; dimer
T2 sequence (Q6ZMU5 2-477): T1 sequence (Q6ZMU5 2-477 R169A/R180A/R198A) with A168R, A179R, A197R

SPRY domain = molecular target: T3, SPRY domain (Homo sapiens, UniProt Q6ZMU5); conditions: 50 mM Tris pH 8.0, 80 mM NaCl, 0.05% Tween 20, 0.3 mM TCEP; room temperature; GFP-labelled protein
T3 construct: gene TRIM72; SPRY domain, residues 278-477; E. coli; GFP-labelled for MST; monomer
T3 sequence (Q6ZMU5 278-477): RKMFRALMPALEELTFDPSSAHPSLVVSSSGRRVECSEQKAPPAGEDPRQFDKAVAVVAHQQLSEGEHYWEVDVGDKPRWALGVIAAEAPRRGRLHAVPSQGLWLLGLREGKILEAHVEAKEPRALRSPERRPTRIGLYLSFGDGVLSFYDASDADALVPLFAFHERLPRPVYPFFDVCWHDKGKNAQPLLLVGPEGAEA

CC-SPRY = molecular target: T4, CC-SPRY (Homo sapiens, UniProt Q6ZMU5); conditions: 50 mM Tris pH 8.0, 80 mM NaCl, 0.05% Tween 20, 0.3 mM TCEP; room temperature; GFP-labelled protein
T4 construct: gene TRIM72; coiled-coil plus SPRY; E. coli; GFP-labelled for MST; dimer
T4 sequence (Q6ZMU5 122-477): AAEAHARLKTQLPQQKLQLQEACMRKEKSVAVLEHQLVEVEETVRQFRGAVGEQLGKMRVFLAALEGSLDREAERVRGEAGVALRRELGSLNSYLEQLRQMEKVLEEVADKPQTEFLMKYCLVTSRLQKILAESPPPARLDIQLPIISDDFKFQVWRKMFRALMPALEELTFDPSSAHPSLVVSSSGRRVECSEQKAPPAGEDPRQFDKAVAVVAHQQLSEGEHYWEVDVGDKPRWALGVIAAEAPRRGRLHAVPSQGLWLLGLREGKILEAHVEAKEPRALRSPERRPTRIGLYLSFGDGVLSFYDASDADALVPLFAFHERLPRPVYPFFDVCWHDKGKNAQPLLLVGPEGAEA

[3] = molecular target: T5, coiled-coil domain alone (121-277) (Homo sapiens, UniProt Q6ZMU5); conditions: 50 mM Tris pH 8.0, 80 mM NaCl, 0.05% Tween 20, 0.3 mM TCEP; room temperature; GFP-labelled protein
T5 construct: gene TRIM72; coiled-coil domain, residues 121-277; E. coli; GFP-labelled for MST
T5 sequence (Q6ZMU5 121-277): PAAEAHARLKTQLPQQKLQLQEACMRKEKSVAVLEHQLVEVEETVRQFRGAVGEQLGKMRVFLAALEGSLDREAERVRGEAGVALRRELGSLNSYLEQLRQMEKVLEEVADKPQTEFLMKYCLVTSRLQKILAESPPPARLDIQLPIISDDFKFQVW

Kd [1]: ~38 µM | Kd [2]: ~10 µM | Kd (SPRY domain): ~4.7 µM | Kd (CC-SPRY): ~10 µM | Kd [3]: ~19.6 µM
Compound: N[C@@H](COP(=O)(O)O)C(=O)O [phospho-L-serine]
